From patent US20240246934A1, “QUINAZOLINE-BASED COMPOUND, COMPOSITION, AND APPLICATION OF QUINAZOLINE-BASED COMPOUND” (BEIJING SCITECH-MQ PHARMACEUTICALS LIMITED, priority 2021, published 2024)
Read-outs that look alike come from different tables or passages of the source.

Assays:
[1] = molecular target: EGFR^WT kinase (Homo sapiens, UniProt P00533); experiment: EGFR^WT kinase assay (ULight/PT66 TR-FRET); type: biochemical
Method in brief: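 Enzyme preincubated 5 min with compound (11-point 3-fold series, duplicate), then ULight-JAK-1 (Tyr1023) peptide and ATP added at 4× stocks of 400 nM and 600 μM; 120 min reaction at room temperature. PT66 antibody TR-FRET read after 60 min; IC50 fitted from inhibition rates.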

[2] = molecular target: Ba/F3 EGFR D770_N771insSVD cells (Homo sapiens, UniProt P00533, DUP768-770, cells depend on it); experiment: Inhibition of cell proliferation, CTG method, Ba/F3 EGFR D770_N771insSVD; type: cell-based; details: 72 hours, read-out: Ba/F3 EGFR D770_N771insSVD IC50
Excerpt: The present application examined the in vitro anti-proliferative activity of the compounds of the present disclosure against in vitro cultured BT474, NCI-N87, Ba/F3-EGFR-VIII and Ba/F3 HER2 A775_G776insYVMA and Ba/F3 EGFR D770_N771insSVD cell lines by CTG method.
Reagents and consumables: RPMI1640 (ThermoFisher, Cat. No. C11875500BT); fetal bovine serum (Hyclone, Cat. No. SV30087.03); 0.25% trypsin-EDTA (ThermoFisher, Cat. No. 25200-072); penicillin-streptomycin (Hyclone, Cat. No. SV30010); DMSO (Amresco, Cat. No. 0231-500ML); CTG assay kit (Promega, Cat. No. G924C); 96-well plate (Corning, Cat. No. 3603); multifunctional plate reader (Perkin Elmer, Cat. No. Envision)
Cell lines: BT474 (from the cell bank of Chinese Academy of Sciences), NCI-N87 (from ATCC), Ba/F3-EGFR-VIII, Ba/F3 HER2 A775_G776insYVMA and Ba/F3 EGFR D770_N771insSVD (all from KYinno Biotechnology (Beijing) Co., Ltd.); all of the above cells were cultured with RPMI1640 medium containing 10% fetal bovine serum, 100 U/mL penicillin, and 100 μg/mL streptomycin in the culture process.
1. The assay compound was dissolved with DMSO to form a stock solution and a gradient dilution was performed, followed by dilution with the corresponding medium to obtain a solution with 5-fold working concentration.
2. Cells in logarithmic growth phase were adjusted to specific cell densities by dilution with culture medium, and 80 μL of cell suspension was added to a 96-well plate, such that plating densities of cells of BT474, NCI-N87, Ba/F3-EGFR-VIII, Ba/F3 HER2 A775_G776insYVMA and Ba/F3 EGFR D770_N771insSVD were all 3000 cells/well. The cells of Ba/F3-EGFR-VIII, Ba/F3 HER2 A775_G776insYVMA and Ba/F3 EGFR D770_N771insSVD were used directly in the next step (treatment with compound), whereas the BT474 and NCI-N87 needed to be cultured overnight in a 37° C., 5% carbon dioxide gas incubator to adhere to the wall, and then treated with compounds.
3. 20 μL of compound solution was added to each well of the 96-well plate that had been inoculated with cells. The highest concentration of the assayed compound was 10 μM, 4-fold serial dilution, a total of 9 concentrations, and duplicate wells. A control group without compound was also set up.
4. The cells were cultured for another 72 hours, and then cell viability was detected by CTG assay kit. Signal values were read with a multifunctional plate reader (Perkin Elmer). GraphPad Prism software was used to create a dose-response curve and IC50 was calculated.

[3] = molecular target: T1, HER2 kinase (Homo sapiens, UniProt P04626); experiment: HER2 kinase assay (ULight/PT66 TR-FRET); type: biochemical
T1 construct: purchased Carna Biosciences 08-016
Method in brief: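 HER2 kinase preincubated 5 min with compounds (11-point 3-fold series, duplicates), then reacted 120 min at room temperature with ATP and ULight-poly GT peptide, each prepared at 4× working concentration (40 μM ATP, 400 nM substrate, 40 nM kinase). PT66 antibody added for 60 min, TR-FRET read; IC50 from inhibition curves.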

[4] = molecular target: Ba/F3 HER2 A775_G776insYVMA cells (Homo sapiens, UniProt P04626, DUP772-775, cells depend on it); experiment: Inhibition of cell proliferation, CTG method, Ba/F3 HER2 A775_G776insYVMA; type: cell-based
Method in brief: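 Ba/F3 HER2 A775_G776insYVMA cells in RPMI1640 with 10% FBS were plated at 3000 cells/well and treated directly with compound (top 10 μM, 4-fold, 9 concentrations, duplicates).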

[5] = Brain tissue and whole blood concentration in SD rats after oral administration; type: in vivo; details: rat, PO 10 mg/kg, 2 h after administration; for Kp at 2 h: brain / whole blood, read-out: Brain tissue/blood ratio
Experimental: In this assay, the pharmacokinetic characteristics of the compounds of the present application were assayed after administration of some of the compounds of the present application to SD rats by single oral administration and intravenous injection.
2. […] The mixture was stirred, vortexed and/or sonicated. Once a solution was obtained, the vehicle was gradually added to a final volume to reach the target concentration. The solution was vortexed, and sonicated to obtain a homogeneous solution.
Meanwhile, the IV group was not fasted and the PO group was fasted overnight (>12 hrs) and given food 2 hrs after drug administration. All animals had free access to water. The dosing regimen and pharmacokinetic sampling regimen are given in Table 6 and Table 7 below, respectively.
Rats were administered according to the above regimen, and blood and brain tissue samples were collected and processed at predetermined time points (collection and processing were performed according to conventional methods in the art).
The supernatant was diluted 2-fold with ultra-pure water, and the samples were analyzed by LC/MS.
Brain tissues were weighed and homogenized by adding 4-fold homogenizing solution (acetonitrile/water=1/1 v/v). […] The supernatant was diluted 2-fold with ultra-pure water, and the samples were analyzed by LC/MS.

[6] = Pharmacokinetics in SD rats, single intravenous injection and oral administration; type: in vivo, SD rat; details: for bioavailability: PO 10 mg/kg vs IV 3 mg/kg, read-out: F % (bioavailability)
Experimental: In this assay, the pharmacokinetic characteristics of the compounds of the present application were assayed after administration of some of the compounds of the present application to SD rats by single oral administration and intravenous injection. 1. […] The mixture was stirred, vortexed and/or sonicated. Once a solution was obtained, the vehicle was gradually added to a final volume to reach the target concentration. The solution was vortexed, and sonicated to obtain a homogeneous solution. The solution was filtered through a 0.22 μm PVDF membrane. 2. […] The mixture was stirred, vortexed and/or sonicated. Once a solution was obtained, the vehicle was gradually added to a final volume to reach the target concentration. The solution was vortexed, and sonicated to obtain a homogeneous solution. […] Meanwhile, the IV group was not fasted and the PO group was fasted overnight (>12 hrs) and given food 2 hrs after drug administration. All animals had free access to water. The dosing regimen and pharmacokinetic sampling regimen are given in Table 6 and Table 7 below, respectively. […] Rats were administered according to the above regimen, and blood and brain tissue samples were collected and processed at predetermined time points (collection and processing were performed according to conventional methods in the art). […] The supernatant was diluted 2-fold with ultra-pure water, and the samples were analyzed by LC/MS. Pharmacokinetic parameters was calculated using WinNonlin software. The following pharmacokinetic parameters was calculated from the plasma drug concentration-time data: CL (clearance); Vd (apparent volume of distribution); T1/2 (elimination half-life time); Cmax (peak concentration); Tmax (time to peak); AUC (area under plasma drug concentration-time curve); MRT (mean retention time); F % (bioavailability).

[7] = test system: Ba/F3 ERBB2 A775_G776insYVMA; experiment: Efficacy in nude mouse tumor-bearing model of Ba/F3 ERBB2 A775_G776insYVMA; type: in vivo, BALB/c nude mice; details: for effect on tumor size (in words): 30 mg/kg PO; for T/C (%): 30 mg/kg, QD×14, PO, day 14
Experimental: In this assay, some compounds of the application were orally administered to a nude mouse tumor-bearing model of Ba/F3 ERBB2 A775_G776insYVMA to study the effect of the compounds of the application on tumor growth.
Preparation of the assay compound: an appropriate weight of the compound to be assayed was weighed, and completely dissolved in an appropriate volume of vehicle (DMSO). The mixture was vortexed or sonicated. Then an appropriate amount of Solutol was added and mixed well. Finally, sterilized drinking water was added and the mixture was mixed by stirring or vortexing to obtain a homogeneous solution or suspension.
Method: All the assays were authorized and agreed by the Animal Welfare Committee. Ba/F3 ERBB2 A775_G776insYVMA in a logarithmic growth period was inoculated subcutaneously into the right back of immunodeficient nude mice (BALB/c nude, female, 6-7 weeks of age, body weight 18±2 g) with 4×10^6 cells/rat. After the tumor grew to 150-200 mm^3, the animals were randomly divided into a treatment group and a control group. For the treatment group, a solution of each assay compound was given, and for the control group, a vehicle solution without the assay compound was given. Both of the treatment group and the control group were administered once a day for about 2 weeks. The dose of each assay article was 30 mg/kg (in terms of effective compound concentration), and the assay compounds were all prepared freshly for use. During the assay, the diameter of loaded tumors was measured twice a week, and the mice were weighed at the same time. The tumor volume (TV) was calculated by the formula: TV=½×a×b^2, where a and b denote length and width, respectively. Relative tumor volume (RTV) was calculated based on the measured results by the formula: RTV=Vt/V0, where V0 is the tumor volume measured at grouping and administration and Vt is the tumor volume at each measurement. The evaluation index of antitumor activity was the relative tumor proliferation rate T/C (%) calculated by the formula: T/C (%)=(TRTV/CRTV)×100%, TRTV: RTV of the administration group; CRTV: RTV of the control group. T and C denote the average tumor volume at a certain time point in the administration group and the control group, respectively.

[8] = 72 hours, read-out: Ba/F3 HER2 A775-G776insYVMA IC50
[9] = whole blood, read-out: Blood drug concentration
[10] = brain, NA: Exposure was too low to be counted, read-out: Brain tissue concentration
[11] = SD, rat, in vivo, PO 10 mg/kg, NA: Exposure was too low to be counted
[12] = SD, rat, whole blood, IV 3 mg/kg
[13] = SD, rat, whole blood, NA: Exposure was too low to be counted
[14] = SD, rat, whole blood, PO 10 mg/kg, NA: Exposure was too low to be counted

Sequence of Ba/F3 HER2 A775_G776insYVMA cells (P04626 with tags, fused parts or gaps DUP772-775): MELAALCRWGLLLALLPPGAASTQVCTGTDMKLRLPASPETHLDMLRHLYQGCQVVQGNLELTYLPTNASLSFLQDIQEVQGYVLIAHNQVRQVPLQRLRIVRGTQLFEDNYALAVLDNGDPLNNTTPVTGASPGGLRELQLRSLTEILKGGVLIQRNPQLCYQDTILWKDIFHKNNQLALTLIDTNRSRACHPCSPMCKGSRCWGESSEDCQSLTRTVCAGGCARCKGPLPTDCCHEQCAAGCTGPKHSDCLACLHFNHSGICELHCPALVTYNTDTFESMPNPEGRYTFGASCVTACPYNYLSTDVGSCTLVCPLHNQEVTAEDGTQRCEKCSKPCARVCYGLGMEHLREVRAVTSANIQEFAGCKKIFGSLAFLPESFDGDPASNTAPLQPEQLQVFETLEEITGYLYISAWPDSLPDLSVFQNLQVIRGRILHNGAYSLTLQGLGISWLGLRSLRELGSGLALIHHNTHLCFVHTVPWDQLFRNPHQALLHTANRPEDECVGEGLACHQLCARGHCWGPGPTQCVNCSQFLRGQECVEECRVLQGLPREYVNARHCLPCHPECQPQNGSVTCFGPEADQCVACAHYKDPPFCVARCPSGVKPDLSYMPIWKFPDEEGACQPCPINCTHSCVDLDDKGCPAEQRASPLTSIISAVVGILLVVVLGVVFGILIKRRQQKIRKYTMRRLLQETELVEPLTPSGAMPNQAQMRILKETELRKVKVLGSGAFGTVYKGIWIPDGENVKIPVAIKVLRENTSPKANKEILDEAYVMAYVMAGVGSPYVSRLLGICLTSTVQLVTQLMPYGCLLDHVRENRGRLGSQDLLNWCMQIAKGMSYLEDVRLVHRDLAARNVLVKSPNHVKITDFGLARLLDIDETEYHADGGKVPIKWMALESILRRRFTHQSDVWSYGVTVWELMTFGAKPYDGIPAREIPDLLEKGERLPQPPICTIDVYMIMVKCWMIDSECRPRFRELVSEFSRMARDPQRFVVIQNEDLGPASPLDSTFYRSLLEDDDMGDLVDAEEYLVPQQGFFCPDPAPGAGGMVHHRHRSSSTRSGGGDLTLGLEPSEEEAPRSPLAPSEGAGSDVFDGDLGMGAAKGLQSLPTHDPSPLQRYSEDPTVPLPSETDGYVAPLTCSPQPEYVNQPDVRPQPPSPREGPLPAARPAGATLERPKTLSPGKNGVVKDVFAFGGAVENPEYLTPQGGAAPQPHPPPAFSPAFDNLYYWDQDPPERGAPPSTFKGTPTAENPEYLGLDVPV
Sequence of Ba/F3 EGFR D770_N771insSVD cells (P00533 with tags, fused parts or gaps DUP768-770): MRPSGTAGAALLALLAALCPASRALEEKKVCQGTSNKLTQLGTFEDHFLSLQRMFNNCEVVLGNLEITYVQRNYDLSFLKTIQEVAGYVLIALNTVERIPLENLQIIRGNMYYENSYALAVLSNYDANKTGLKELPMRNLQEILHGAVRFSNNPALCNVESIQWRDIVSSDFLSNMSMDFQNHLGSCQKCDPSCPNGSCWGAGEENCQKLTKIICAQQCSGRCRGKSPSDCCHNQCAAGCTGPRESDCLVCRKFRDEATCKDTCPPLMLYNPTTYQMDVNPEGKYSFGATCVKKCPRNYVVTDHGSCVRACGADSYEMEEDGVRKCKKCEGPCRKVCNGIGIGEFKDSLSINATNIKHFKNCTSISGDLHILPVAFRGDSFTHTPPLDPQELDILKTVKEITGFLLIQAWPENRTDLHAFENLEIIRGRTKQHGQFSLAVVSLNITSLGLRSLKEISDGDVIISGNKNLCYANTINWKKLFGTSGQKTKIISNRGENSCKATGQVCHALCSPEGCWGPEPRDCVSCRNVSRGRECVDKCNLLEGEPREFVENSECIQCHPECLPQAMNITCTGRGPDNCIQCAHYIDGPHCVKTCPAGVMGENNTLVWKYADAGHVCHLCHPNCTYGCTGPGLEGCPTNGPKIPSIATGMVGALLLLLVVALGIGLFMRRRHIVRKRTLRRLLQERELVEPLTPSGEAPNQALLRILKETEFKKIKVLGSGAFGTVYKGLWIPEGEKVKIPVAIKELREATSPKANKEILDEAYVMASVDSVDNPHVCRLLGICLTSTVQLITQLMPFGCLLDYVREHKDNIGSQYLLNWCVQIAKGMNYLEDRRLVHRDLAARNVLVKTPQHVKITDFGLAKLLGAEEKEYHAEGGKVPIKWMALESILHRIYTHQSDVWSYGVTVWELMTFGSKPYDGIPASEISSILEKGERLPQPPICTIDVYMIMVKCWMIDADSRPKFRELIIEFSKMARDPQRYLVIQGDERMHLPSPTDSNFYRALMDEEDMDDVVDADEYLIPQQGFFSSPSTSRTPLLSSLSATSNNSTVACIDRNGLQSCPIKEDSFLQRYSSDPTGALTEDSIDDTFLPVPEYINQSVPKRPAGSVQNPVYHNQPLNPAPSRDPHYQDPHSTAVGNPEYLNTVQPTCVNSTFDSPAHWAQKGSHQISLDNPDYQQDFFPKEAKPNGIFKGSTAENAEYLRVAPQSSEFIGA
Sequence of EGFR^WT kinase (P00533 25-1210): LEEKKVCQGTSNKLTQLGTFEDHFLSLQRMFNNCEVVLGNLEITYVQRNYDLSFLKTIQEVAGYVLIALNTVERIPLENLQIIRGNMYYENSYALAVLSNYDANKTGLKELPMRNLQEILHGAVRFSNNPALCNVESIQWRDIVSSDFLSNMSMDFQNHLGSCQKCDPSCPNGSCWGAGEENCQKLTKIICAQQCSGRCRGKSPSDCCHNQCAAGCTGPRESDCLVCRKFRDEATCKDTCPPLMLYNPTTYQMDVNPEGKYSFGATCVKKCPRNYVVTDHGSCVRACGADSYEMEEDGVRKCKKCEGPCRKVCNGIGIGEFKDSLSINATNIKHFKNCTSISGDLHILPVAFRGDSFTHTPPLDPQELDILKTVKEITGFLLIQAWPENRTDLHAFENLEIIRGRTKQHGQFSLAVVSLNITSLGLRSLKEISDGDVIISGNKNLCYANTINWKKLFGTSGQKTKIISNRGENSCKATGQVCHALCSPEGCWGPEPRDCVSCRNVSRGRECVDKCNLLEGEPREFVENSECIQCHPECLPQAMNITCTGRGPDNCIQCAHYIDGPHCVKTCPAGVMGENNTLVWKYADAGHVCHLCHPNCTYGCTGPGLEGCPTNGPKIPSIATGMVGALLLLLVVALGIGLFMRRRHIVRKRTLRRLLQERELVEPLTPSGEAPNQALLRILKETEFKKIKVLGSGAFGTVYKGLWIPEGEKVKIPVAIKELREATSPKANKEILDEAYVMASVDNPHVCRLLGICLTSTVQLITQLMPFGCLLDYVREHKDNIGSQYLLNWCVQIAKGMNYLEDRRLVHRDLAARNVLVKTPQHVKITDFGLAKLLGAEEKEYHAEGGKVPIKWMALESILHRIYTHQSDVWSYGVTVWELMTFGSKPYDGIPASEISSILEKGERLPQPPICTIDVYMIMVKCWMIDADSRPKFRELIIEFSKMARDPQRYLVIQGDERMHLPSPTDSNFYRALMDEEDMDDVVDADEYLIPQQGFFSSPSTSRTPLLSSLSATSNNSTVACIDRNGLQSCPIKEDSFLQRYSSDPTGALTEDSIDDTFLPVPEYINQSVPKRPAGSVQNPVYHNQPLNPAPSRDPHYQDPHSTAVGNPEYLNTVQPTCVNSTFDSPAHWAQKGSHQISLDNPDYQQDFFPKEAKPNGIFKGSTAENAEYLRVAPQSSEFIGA
T1 sequence (P04626 23-1255): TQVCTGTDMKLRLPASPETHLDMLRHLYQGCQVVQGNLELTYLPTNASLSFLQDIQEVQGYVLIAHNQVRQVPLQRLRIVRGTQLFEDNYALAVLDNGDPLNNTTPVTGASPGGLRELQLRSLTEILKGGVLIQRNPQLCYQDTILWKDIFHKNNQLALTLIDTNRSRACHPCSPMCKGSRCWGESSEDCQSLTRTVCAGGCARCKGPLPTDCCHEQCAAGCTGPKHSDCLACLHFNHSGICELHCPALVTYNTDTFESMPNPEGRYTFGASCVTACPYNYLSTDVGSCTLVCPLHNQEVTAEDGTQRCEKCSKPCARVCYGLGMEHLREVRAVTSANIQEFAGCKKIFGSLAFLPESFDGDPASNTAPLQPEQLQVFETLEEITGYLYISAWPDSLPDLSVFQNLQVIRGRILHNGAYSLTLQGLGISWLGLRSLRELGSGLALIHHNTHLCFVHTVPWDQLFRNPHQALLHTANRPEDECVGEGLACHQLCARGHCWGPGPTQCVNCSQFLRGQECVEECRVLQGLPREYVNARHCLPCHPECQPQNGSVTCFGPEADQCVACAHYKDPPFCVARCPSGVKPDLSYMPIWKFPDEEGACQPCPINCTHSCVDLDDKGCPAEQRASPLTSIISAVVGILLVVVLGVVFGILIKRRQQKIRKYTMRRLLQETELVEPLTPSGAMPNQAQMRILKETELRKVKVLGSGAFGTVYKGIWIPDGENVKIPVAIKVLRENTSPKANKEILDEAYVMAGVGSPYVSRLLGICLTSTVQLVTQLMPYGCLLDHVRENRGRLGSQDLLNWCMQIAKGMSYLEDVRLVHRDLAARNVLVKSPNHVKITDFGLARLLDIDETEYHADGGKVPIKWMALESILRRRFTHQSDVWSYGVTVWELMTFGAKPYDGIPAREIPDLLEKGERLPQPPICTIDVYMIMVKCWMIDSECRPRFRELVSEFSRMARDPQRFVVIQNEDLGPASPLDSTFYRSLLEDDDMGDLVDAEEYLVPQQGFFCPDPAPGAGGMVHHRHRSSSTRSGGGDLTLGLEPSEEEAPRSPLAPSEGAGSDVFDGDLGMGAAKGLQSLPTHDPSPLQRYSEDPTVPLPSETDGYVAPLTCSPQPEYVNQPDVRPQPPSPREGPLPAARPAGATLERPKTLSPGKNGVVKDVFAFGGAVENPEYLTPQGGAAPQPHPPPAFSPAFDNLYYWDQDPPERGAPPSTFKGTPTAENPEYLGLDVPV

SMILES	IC50 [1]	GI50 [2]	IC50 [3]	GI50 [4, 8]	concentration at 2 h [5, 9]	Kp at 2 h [5]	concentration at 2 h [5, 10]	Cl_obs ([6]; IV 3 mg/kg)	AUC(0-inf) [6, 12]	Vd [6, 12]	bioavailability [6, 13]	AUC(0-inf) [6, 14]	effect on tumor size (in words) [7]	T/C (%) [7]	other results
CN1CCC[C@@H]1/C=C/C(=O)Nc1ccc2ncnc(Nc3ccc(OCc4ccccn4)c(Cl)c3)c2c1OCCCO [Example 17, (R,E)-N-(4-((3-chloro-4-(pyridin-2-ylmethoxy)phenyl)amino)-5-(3-hydroxypropoxy)quinazolin-6-yl)-3-(1-methylpyrrolidin-2-yl)acrylamide]	< 10 nM	10 to 100 nM	< 10 nM	1 to 5 nM											
COCCN1CCC[C@@H]1/C=C/C(=O)Nc1ccc2ncnc(Nc3ccc(OCc4cccc(F)c4)c(Cl)c3)c2c1OC [Example 26]	10 to 100 nM	10 to 100 nM	< 10 nM	1 to 5 nM											
CCOc1cc2ncc(C#N)c(Nc3ccc(OCc4ccccn4)c(Cl)c3)c2cc1NC(=O)/C=C/CN(C)C [NERATINIB, neratinib, reference compound]					440 ng/mL	0.0366	14.4 ng/g	20.8 ± 2.0 mL/min/kg	2420 ± 252 ng·h/mL	7.94 ± 1.71 L/kg	18.2 ± 7.89%	1470 ± 638 ng·h/mL	still remain significant growth	45.9%	AUC(0-t) ([6]; SD, rat, in vivo, IV 3 mg/kg): 2390 ± 267 ng·h/mL; half-life ([6]; SD, rat, in vivo, IV 3 mg/kg): 4.38 ± 0.55 h; AUC(0-t) [6, 11]: 1470 ± 637 ng·h/mL; Cmax [6, 11]: 201 ± 66 ng/mL; half-life [6, 11]: 2.97 ± 0.27 h; GI50 ([4]; read-out: Ba/F3 HER2 A775-G776insYVMA IC50, 72 hours): 10 to 100 nM
CCOc1cc2ncc(C#N)c(Nc3ccc(OCc4ccccn4)c(Cl)c3)c2cc1NC(=O)/C=C/[C@H]1CCCN1C [PYROTINIB, pyrotinib, reference compound]				10 to 100 nM	884 ng/mL	0.0291	25.8 ng/g	6.04 ± 0.63 mL/min/kg	8340 ± 890 ng·h/mL	1.81 ± 0.26 L/kg	10.1 ± 4%	2810 ± 1110 ng·h/mL	still remain significant growth	38.3%	AUC(0-t) [6, 12]: 8310 ± 892 ng·h/mL; half-life [6, 12]: 3.45 ± 0.24 h; AUC(0-t) [6, 14]: 2790 ± 1110 ng·h/mL; Cmax [6, 14]: 246 ± 76 ng/mL; Tmax [6, 14]: 4.33 ± 2.52 h; half-life [6, 14]: 3.6 ± 0.37 h
